The values that follow come from patent publication US20200332251A1, “PERFUSION MEDIUM” (Boehringer Ingelheim International GmbH, priority 2017, published 2020).

Common to all, as to assay type: cell-based, Chinese Hamster
The subject of assay [1] is CHO perfusion cell culture. Nature of the assay: Deep-well plate perfusion cell culture model, acetylsalicylic acid (ASA) in perfusion media with 500 μM arachidonic acid. As for the experimental part:
(§1) The below examples, unless specified otherwise, were carried out using the following generalized protocol and apparatus for perfusion cell culture. Two different formats of perfusion culture process were employed for the experiments described in the examples. One is executed in a bioreactor model and the other is in a deep-well plate model.
(§2) The deep-well plate model is carried out using 24 deep-well plates with an 8 day run duration. A starting cell density of 20e^6 cells/ml is targeted for deep well plate model work. The working volume per well is 3 ml and cells are grown at 33° C. with 5% CO2, 80% humidity, and 200 rpm in an incubator with a 5.0 cm orbit diameter. Medium exchanges are performed daily by centrifuging the plate at 1800 rpm for 5 mins, removing supernatant, and re-suspending the cells in fresh media at 70% volume per day (VVD) exchange rate. Further details of the setup is described by Lin et al. (Biotechnol. Prog., 2017, Vol. 33, No. 4).
In this example, the deep-well plate model is used. ASA is an inhibitor of COX-1 and COX-2, which are the metabolic enzymes which convert arachidonic acid to synthesize prostaglandin E2 (See FIG. 2). This experiment therefore analyses the effect of acetylsalicylic acid (ASA) when added to perfusion medium.
The data provide evidence that prostaglandin E2 is effective in triggering cell growth suppression and in increasing cell specific productivity.

Assay [2] deals with CHO perfusion cell culture. Put plainly: cells. The conditions noted are these: for increase of the cell specific productivity: relative to cell culture without the additive; for cell growth (VCD) relative to normal perfusion media / specific productivity relative to normal perfusion media: each concentration (arachidonic acid 500 μM; PGE2 0.001, 10, 20, 60 μM), before day 6. How it is done: as §1, §2
In this example, the deep-well plate model is used.
Linoleic acid at various concentrations 500 μM, 900 μM, 1350 μM and 1800 μM was added to the cell culture media and the effects on (A) viable cell density (e^5 cells/nil), (B) percent (%) cell viability and (C) specific productivity (qp) were determined.
In this example, the deep-well plate model is used. This example analyzes the effect of arachidonic acid when added to perfusion medium.
The effect of arachidonic acid on (A) viable cell density (e^5 cells/nil), (B) percent (%) cell viability and (C) specific productivity (qp) of the cell culture was determined.
In this example, the deep-well plate model is used. This experiment analyzes the effect of prostaglandin E2 when added to perfusion medium.
At each concentration, the VCD and specific productivity (i.e., specific titer), the growth was suppressed cell growth and the specific productivity was increased before day 6 relative to the cell culture in normal perfusion media.

For assay [3], the system named is CHO perfusion cell culture. Put plainly: Deep-well plate perfusion cell culture model, arachidonic acid added to k-pop (high potassium) perfusion medium. Conditions: 150 μM to 500 μM in medium with about 34 mM sodium and 94 mM potassium; beyond the effect of high potassium alone. How it is done: as §1
as §2, with “4). […]” for “4).”
The effect of concentrations of arachidonic acid added at 150 μM, 300 μM and 500 μM to a cell culture media having a sodium concentration of approximately 34 mM and a preexisting high potassium concentration of approximately 94 mM, i.e., a low sodium-to-potassium ratio of about 0.4, was determined with respect to (A) viable cell density (e^5 cells/nil), (B) percent (%) cell viability and (C) specific productivity (qp) was determined.

[4] abbreviates: ASA in perfusion media with 500 μM arachidonic acid.
The mark [5] stands for this setting: Cricetulus griseus, read-out: decrease of the VCD (viable cell density).
Setting [6] is: added to perfusion medium, 500-1800 μM (Example 2, FIG. 3).
Where [7] appears, read: 500 μM added in the normal perfusion media (Example 3, FIG. 4).

SMILES strings stand for the structures.

For the molecule `CC(=O)Oc1ccccc1C(=O)O` [ASA, acetylsalicylic acid], in assay [1] (setting [4]), the “specific productivity compared with normal perfusion medium” value was “same effect” and the “viable cell density compared with normal perfusion medium” value is recorded as “higher”.
With `CCCCC/C=C\C/C=C\CCCCCCCC(=O)O` [linoleic acid], the “increase of the cell specific productivity” value in assay [2] (500 μM in growth medium) is given as “up to 10%”. Besides, the “increase of the cell specific productivity” value in assay [2] (900 μM in growth medium) was “up to 14%”. Also, the “increase of the cell specific productivity” value in assay [2] (1350 μM in growth medium) is given as “up to 14%”. The “increase of the cell specific productivity” value in assay [2] (1800 μM in growth medium) is recorded as “up to 30%”. In addition, the “viable cell density, viability and specific productivity relative to the normal perfusion media” value in assay [2] (1800 μM, similar to arachidonic acid at 500 μM) was “most significant difference”. The “cell specific productivity relative to normal perfusion media” value in assay [2] (500, 900 and 1350 μM, day 7, about the same at the three concentrations) is “significantly increased”. In addition, in assay [2] (setting [5]), the cytotoxicity at 500 µM lay within 6 to 10%, the cytotoxicity at 900 µM lay within 11 to 14%, the cytotoxicity at 1350 µM was in the range of 11 to 25% and the cytotoxicity at 1800 µM lay within 23 to 39.8%. In addition, in assay [2] (setting [6]), the cell growth result is “suppresses cell growth” and the “cell specific productivity (qp)” value is recorded as “increases cell specific productivity”.
Consider `CCCCC[C@H](O)/C=C/[C@H]1[C@H](O)CC(=O)[C@@H]1C/C=C\CCCC(=O)O` [prostaglandin E2], for which the “increase of the cell specific productivity” value in assay [2] (0.001 μM in growth medium) is on record as “up to 13.5%”; in assay [2] (10 μM in growth medium), “up to 34.4%”; in assay [2] (20 μM in growth medium) it was “up to 31%”; in assay [2] (60 μM in growth medium), “up to 31%”. Also, the “cell growth (VCD) relative to normal perfusion media” value in assay [2] is on record as “suppressed”. Besides, in assay [2], the “specific productivity relative to normal perfusion media” value was “increased”.
Turning to `CCCCC/C=C\C/C=C\C/C=C\C/C=C\CCCC(=O)O` [arachidonic acid], in assay [2] (setting [7]), the “increase of cell specific productivity (qp)” value is no less than 46% and the “suppression of cell growth” value is “up to 31%”. For the same molecule, the “increase of the cell specific productivity” value in assay [2] (500 μM in growth medium) was “up to 52%”. The cytotoxicity at 500 µM in assay [2] (setting [5]) fell in the range of 15 to 36%. In assay [2], the “cell growth (VCD) relative to normal perfusion media” value was “suppressed” and the “specific productivity relative to normal perfusion media” value was “increased”. In addition, in assay [3], the cell growth result is on record as “decreases cell growth” and the cell specific productivity entry is listed as “improves cell specific productivity”. Besides, the “suppressing cell growth and increasing productivity” value in assay [1] (500 μM arachidonic acid when COX-1 and COX-2 are inhibited by ASA) was “no effect”.
